Literature values, collected in US4510132A, “Compounds for use in antibacterial therapy” (priority 1982, dated 1985).

How the values were obtained:
mice = conditions: Chihara et al, Kajiwara et al; cited from earlier work
[1] = Chihara et al 1973, 1974; cited from earlier work

polymyxin E nonapeptide [PMEN]
toxicity to eukaryotes (mice) compared with parent compound colistin (mice): significantly less toxic
antibacterial activity compared with colistin [1]: lack the antibacterial activity of colistin
